ChEMBL document CHEMBL2073780, “The antiprogestatin drug RU 486 potentiates doxorubicin cytotoxicity in multidrug resistant cells through inhibition of P-glycoprotein function” (FEBS Lett, 1994)

Legend:
Type in all cases: functional, cell-based
[1] = molecular target: Multidrug resistance protein 1a (Rattus norvegicus) (UniProt Q6PSM0); assay: TP_TRANSPORTER: increase in Doxorubicin intracellular accumulation (Doxorubicin: 10 ug/mL, Progesterone: 10 uM) in RHC1 cells
[2] = molecular target: ATP-dependent translocase ABCB1 (Homo sapiens, UniProt P08183); assay: TP_TRANSPORTER: increase in Doxorubicin intracellular accumulation (Doxorubicin: 10 ug/mL, RU486: 10 uM) in K562 R7 cells; details: k562/r7, 10 µM
[3] = molecular target: Multidrug resistance protein 1a (Rattus norvegicus) (UniProt Q6PSM0); assay: TP_TRANSPORTER: increase in Doxorubicin intracellular accumulation (Doxorubicin: 10 ug/mL, RU486: 10 uM) in RHC1 cells

Sequence of Multidrug resistance protein 1a (Rattus norvegicus) (Q6PSM0 as listed by the source): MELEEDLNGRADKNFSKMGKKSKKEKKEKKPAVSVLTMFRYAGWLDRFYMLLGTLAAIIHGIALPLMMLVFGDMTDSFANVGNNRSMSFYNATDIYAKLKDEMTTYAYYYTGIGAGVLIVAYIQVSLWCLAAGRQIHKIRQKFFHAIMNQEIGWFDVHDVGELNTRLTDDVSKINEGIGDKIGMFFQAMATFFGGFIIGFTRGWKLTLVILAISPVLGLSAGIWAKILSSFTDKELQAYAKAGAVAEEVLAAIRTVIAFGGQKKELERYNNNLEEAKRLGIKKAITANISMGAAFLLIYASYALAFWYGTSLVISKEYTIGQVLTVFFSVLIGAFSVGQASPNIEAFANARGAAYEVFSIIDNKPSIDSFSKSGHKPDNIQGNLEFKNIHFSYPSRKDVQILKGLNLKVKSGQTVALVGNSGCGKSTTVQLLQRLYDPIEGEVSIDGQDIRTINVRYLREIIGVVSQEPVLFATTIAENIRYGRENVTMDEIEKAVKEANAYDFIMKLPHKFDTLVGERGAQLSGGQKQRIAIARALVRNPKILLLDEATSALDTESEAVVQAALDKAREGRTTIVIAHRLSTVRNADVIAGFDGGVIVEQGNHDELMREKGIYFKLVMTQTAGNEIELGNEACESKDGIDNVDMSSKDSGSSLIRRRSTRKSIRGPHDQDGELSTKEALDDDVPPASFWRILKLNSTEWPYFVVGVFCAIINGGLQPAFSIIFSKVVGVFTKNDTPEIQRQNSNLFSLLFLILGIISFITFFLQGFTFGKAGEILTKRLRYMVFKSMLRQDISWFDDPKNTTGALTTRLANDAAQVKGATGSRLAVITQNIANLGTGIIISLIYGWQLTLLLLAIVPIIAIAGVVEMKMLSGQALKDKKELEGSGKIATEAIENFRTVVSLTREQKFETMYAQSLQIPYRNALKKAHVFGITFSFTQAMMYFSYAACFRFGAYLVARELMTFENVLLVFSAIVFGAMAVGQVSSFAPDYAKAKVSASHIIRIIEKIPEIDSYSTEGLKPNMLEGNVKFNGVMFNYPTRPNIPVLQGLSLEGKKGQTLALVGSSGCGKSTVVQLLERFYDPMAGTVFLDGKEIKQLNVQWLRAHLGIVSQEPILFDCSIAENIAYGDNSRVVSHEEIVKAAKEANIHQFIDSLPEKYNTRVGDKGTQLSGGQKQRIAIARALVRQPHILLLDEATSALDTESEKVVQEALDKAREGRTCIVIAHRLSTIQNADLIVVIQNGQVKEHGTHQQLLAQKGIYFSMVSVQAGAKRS
Sequence of ATP-dependent translocase ABCB1 (P08183 whole entry): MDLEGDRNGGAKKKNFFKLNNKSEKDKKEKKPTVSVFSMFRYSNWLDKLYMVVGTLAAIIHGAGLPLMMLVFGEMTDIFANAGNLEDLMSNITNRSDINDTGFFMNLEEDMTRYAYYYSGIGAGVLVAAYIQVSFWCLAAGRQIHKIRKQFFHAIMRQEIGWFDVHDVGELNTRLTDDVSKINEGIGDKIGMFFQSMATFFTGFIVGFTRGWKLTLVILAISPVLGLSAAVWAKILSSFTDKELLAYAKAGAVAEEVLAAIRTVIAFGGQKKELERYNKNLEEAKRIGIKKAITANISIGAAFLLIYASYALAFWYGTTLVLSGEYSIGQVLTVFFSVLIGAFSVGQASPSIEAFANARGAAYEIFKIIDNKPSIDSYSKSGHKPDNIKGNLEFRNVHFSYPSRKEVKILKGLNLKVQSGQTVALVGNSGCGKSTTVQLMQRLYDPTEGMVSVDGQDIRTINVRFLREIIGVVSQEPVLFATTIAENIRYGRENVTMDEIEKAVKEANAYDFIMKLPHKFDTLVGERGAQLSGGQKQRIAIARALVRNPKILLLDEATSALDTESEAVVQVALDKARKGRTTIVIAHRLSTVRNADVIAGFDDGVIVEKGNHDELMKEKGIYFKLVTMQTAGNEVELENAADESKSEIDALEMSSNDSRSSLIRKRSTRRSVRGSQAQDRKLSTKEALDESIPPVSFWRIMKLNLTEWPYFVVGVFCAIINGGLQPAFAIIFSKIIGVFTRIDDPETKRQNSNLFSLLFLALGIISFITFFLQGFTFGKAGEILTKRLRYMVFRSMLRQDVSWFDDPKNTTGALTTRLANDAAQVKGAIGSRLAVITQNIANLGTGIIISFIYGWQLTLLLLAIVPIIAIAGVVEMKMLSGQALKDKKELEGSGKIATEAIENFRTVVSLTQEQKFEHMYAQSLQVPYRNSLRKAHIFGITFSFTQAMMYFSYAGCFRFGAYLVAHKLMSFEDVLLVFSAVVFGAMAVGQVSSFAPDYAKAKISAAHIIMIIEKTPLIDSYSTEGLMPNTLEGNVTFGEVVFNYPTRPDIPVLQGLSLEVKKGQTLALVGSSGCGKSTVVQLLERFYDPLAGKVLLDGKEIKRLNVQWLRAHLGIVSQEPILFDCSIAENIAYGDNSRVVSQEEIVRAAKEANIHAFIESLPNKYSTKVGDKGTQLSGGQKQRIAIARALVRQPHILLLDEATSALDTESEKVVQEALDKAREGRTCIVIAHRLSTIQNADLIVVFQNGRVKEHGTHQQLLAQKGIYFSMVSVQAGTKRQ

Row | Structure (SMILES) | Activity [1] | Activity [2] | Activity [3]
1 | CC(=O)[C@H]1CC[C@H]2[C@@H]3CCC4=CC(=O)CC[C@]4(C)[C@H]3CC[C@]12C | inhibitor [+] | – | –
2 | CC#C[C@]1(O)CC[C@H]2[C@@H]3CCC4=CC(=O)CCC4=C3[C@@H](c3ccc(N(C)C)cc3)C[C@@]21C [MIFEPRISTONE] | – | inhibitor [+] | inhibitor [+]
